≈ marks a conversion by molar mass, not a printed value.
Tests used:
S. aureus ATCC 43300 = assay: MIC, broth dilution method; assay type: cell-based; details: Staphylococcus aureus, ATCC43300; MHB II, 18 h, 37 °C; read-out: Minimum inhibitory concentration S. aureus ATCC 43300
Description: (§1) MIC was determined with the dilution method in Mueller–Hinton II broth (MHB II) on 96-well polystyrene plates. The reference strains (Polish Academy of Sciences, Wroclaw, Poland) of Gram-positive bacteria (Enterococcus faecium ATCC 29,212, S. aureus ATCC 6538, S. aureus ATCC 43,300, S. aureus ATCC 12,598, S. aureus ATCC 25,923, S. aureus, ATCC 33,591, Staphylococcus epidermidis ATCC 14,990) and Gram-negative bacteria (Acinetobacter baumanii ATCC 23,506, Escherichia coli ATCC 25,922, Klebsiella pneumoniae ATCC 700,603, Pseudomonas aeruginosa ATCC 9027) were suspended in MHB II medium to initial inoculum of 10^5 cfu/mL. The microbes were exposed to graded concentrations of tested compounds (range 0.5–256 mg/L) for 18 h at 37 °C under aerobic conditions. The compounds were dissolved in DMSO and then diluted with PBS. […] MIC was taken as the lowest concentration at which no microbial growth was observed. The experiments were performed in triplicate.

E. faecium ATCC 29212 = assay: MIC, broth dilution method; assay type: cell-based; details: Enterococcus faecium, ATCC29212; MHB II, 18 h, 37 °C; read-out: Minimum inhibitory concentration E. faecium ATCC 29212
Description: as §1

S. aureus ATCC 12598 = assay: MIC, broth dilution method; assay type: cell-based; details: Staphylococcus aureus, ATCC12598; MHB II, 18 h, 37 °C; read-out: Minimum inhibitory concentration S. aureus ATCC 12598
Description: as §1

[1] = test system: S. epidermidis ATCC 14990; assay: MIC, broth dilution method; assay type: cell-based; details: Staphylococcus epidermidis, ATCC14990; MHB II, 18 h, 37 °C; read-out: Minimum inhibitory concentration S. epidermidis ATCC 14990
Description: as §1

S. aureus ATCC 33591 = assay: MIC, broth dilution method; assay type: cell-based; details: Staphylococcus aureus, ATCC33591; MHB II, 18 h, 37 °C; read-out: Minimum inhibitory concentration S. aureus ATCC 33591
Description: as §1

S. aureus ATCC 6538 = assay: MIC, broth dilution method; assay type: cell-based; details: Staphylococcus aureus, ATCC6538; MHB II, 18 h, 37 °C; read-out: Minimum inhibitory concentration S. aureus ATCC 6538
Description: as §1

S. aureus ATCC 25923 = assay: MIC, broth dilution method; assay type: cell-based; details: Staphylococcus aureus, ATCC25923; MHB II, 18 h, 37 °C; read-out: Minimum inhibitory concentration S. aureus ATCC 25923
Description: as §1

[2] = test system: breast cancer cells (MCF-7 line); assay: MTT cytotoxicity assay, MCF7; assay type: cell-based, human; details: for IC50: Homo sapiens, MCF7 cells, 48 h treatment, MTT; for SI MCF7 (selectivity index): ratio of IC50 for normal cell line (HaCaT) to IC50 for MCF7, 48 h
Description: (§2) The MTT assay was performed to specify the cytotoxicity of 7–12 and 13–18 against prostate cancer cells (PC3 line), breast cancer cells (MCF7 line), and human keratinocytes (HaCaT line). The mentioned cell lines were assayed by exposing them for 48 h to a medium containing the studied compounds over a wide range of concentrations. The IC50 values (dose of the compound which caused a 50% reduction of cell viability) and the selectivity indexes (SI), which show the ratio of IC50 for normal cell line to IC50 for cancer cell line, are shown in Table S2. An MTT assay was performed to specify the cytotoxicity of the studied compounds against breast cancer cells (MCF-7 line, ATCC), prostate cancer cells (PC3 line, ATCC) and human keratinocytes (HaCaT line, CLS). The MCF-7 cell line was cultured in an RPMI 1640 medium (Gibco, Thermo Fisher Scientific), the PC3 cell line in a F-12K medium (Gibco, Thermo Fisher Scientific), and the HaCaT cell line in a high-glucose DMEM (Gibco, Thermo Fisher Scientific). Each medium was supplemented with 10% fetal bovine serum (Gibco, Thermo Fisher Scientific) and antibiotics (penicillin and streptomycin, Gibco, Thermo Fisher Scientific). Cells were seeded at a density of 4000 per well into 96-well plates and incubated at 37 °C in a 5% CO2 atmosphere. The cells were treated with studied compounds in a concentration range of 0.1–100 μg/mL or with a vehicle (1% DMSO) as a control and subsequently incubated for 48 h. Thereafter, the MTT salt solution (3-(4,5-dimethylthiazol-2-yl)-2,5-diphenyltetrazolium bromide, VWR) was added at a concentration of 4 mg/mL (25 μL per well), and the obtained product (formazan) after 3 h of incubation was dissolved in DMSO. An EnSpire microplate reader (PerkinElmer) was used to measure absorbance at 570 nm (the reference wavelength was 660 nm). The viability of the control cells was taken as 100%. Three independent experiments were conducted in triplicate. Statistical analysis of the results and estimation of IC50 values were performed using GraphPad Prism 7 software.

[3] = test system: prostate cancer cells (PC3 line); assay: MTT cytotoxicity assay, PC3; assay type: cell-based, human; details: for IC50: Homo sapiens, PC-3, PC3 cells, 48 h treatment, MTT; for SI PC3 (selectivity index): ratio of IC50 for normal cell line (HaCaT) to IC50 for PC3, 48 h
Description: as §2

[4] = test system: human keratinocytes (HaCaT line); assay: MTT cytotoxicity assay, HaCaT; assay type: cell-based; details: Homo sapiens, HaCaT normal cells, 48 h treatment
Description: as §2

[5] = test system: Staphylococcus aureus strains tested, including methicilin-resistant S. aureus; assay: Antistaphylococcal activity, summary over the strains tested; assay type: cell-based; details: range over the S. aureus strains tested
Description: as §1

Row | SMILES | MIC (S. aureus ATCC 43300) [µg/mL] | MIC (E. faecium ATCC 29212) [µg/mL] | MIC (S. aureus ATCC 12598) [µg/mL] | MIC [1] [µg/mL] | MIC (S. aureus ATCC 33591) [µg/mL] | MIC (S. aureus ATCC 6538) [µg/mL] | MIC (S. aureus ATCC 25923) [µg/mL] | IC50 [2] [µM] | SI MCF7 (selectivity index) [2] | IC50 [3] [µM] | SI PC3 (selectivity index) [3] | IC50 [4] [µM] | concentrations at which antistaphylococcal activity was achieved [5] [mg/L]
1 | C[C@@H]1CC[C@@]2(OC1)O[C@H]1C[C@H]3[C@@H]4CC=C5C[C@@H](O[C@@H]6CC[C@H](O)CO6)CC[C@]5(C)[C@H]4CC[C@]3(C)[C@H]1[C@@H]2C [17α] | 128 (≈ 249 µM) | > 256 | 256 (≈ 497 µM) | > 256 | 256 (≈ 497 µM) | 128 (≈ 249 µM) | 256 (≈ 497 µM) | 68.2 | 0.71 | 73.2 | 0.66 | 48.3 | 128 to 256
2 | C[C@@H]1CC[C@@]2(OC1)O[C@H]1C[C@H]3[C@@H]4CC=C5C[C@@H](O[C@@H]6CC[C@@H](O)[C@@H](CO)O6)CC[C@]5(C)[C@H]4CC[C@]3(C)[C@H]1[C@@H]2C [14α, Diosgenyl 2,3-Dideoxy-α-D-threo-hexopyranoside] | 128 (≈ 235 µM) | > 256 | 256 (≈ 470 µM) | > 256 | 256 (≈ 470 µM) | 64 (≈ 117 µM) | 64 (≈ 117 µM) | 25 | 2.13 | 41.1 | 1.29 | 53.2 | 64 to 256
3 | C[C@@H]1CC[C@@]2(OC1)O[C@H]1C[C@H]3[C@@H]4CC=C5C[C@@H](O[C@H]6C=C[C@H](O)[C@H](C)O6)CC[C@]5(C)[C@H]4CC[C@]3(C)[C@H]1[C@@H]2C [10α, Diosgenyl 2,3,6-Trideoxy-α-L-threo-hex-2-enopyranoside] | > 256 | > 256 | > 256 | > 256 | > 256 | > 256 | > 256 | 57.6 | 0.88 | 49.7 | 1.02 | 50.9 | –
